The values below come from patent US7560456B2, “Pesticidal pyridinecarboxamide derivatives” (Merial Limited, priority 2002, dated 2009).

The test system of assay [1] is black bean aphids (Aphis fabae). In words: Method B: root-systemic test, aqueous solution of the formulated preparation pipetted into the bottle of field bean (Vicia faba) populated with aphids. The format is in vivo. Conditions: 10 ppm (based on content of active compound), 4 ml solution pipetted into bottle, after 3 and 6 days of storage, read-out: mortality among the aphids, by root-systemic action. How it is done: Germinated field bean seeds (Vicia faba) with seed roots were transferred into brown glass bottles filled with tap water. Four milliliters of an aqueous solution of the formulated preparation to be examined were pipetted into the brown glass bottle.
The field bean was then heavily populated with about 100 black bean aphids (Aphis fabae). Plants and aphids were then stored in a climatized chamber (16 hours of light/day, 25° C., 40-60% relative atmospheric humidity). After 3 and 6 days of storage, the root-systemic effect of the preparation on the aphids was determined.

For assay [2] the test system is unchanged. In words: whole plant or invertebrate. To be noted: in Vicia faba, read-out: mortality among the aphids.

As for `C=CCSC(=NC(=O)c1cnccc1C(F)(F)F)NCc1ccccc1` [Compound A-724, 1-benzyl-S-(2-propenyl)-3-(4-trifluoromethyl-3-pyridylcarbonyl)isothiourea], in assay [1], the mortality at 10 ppm is not below 80%. Also, the mortality at 100 ppm in assay [2] was not below 50%.

The term mortality denotes the percentage killed.
